This note sets out measurements from article PMC8187944, “Discovery of Potent EGFR Inhibitors With 6-Arylureido-4-anilinoquinazoline Derivatives” (Frontiers in Pharmacology, 2021).

SMILES strings stand for the structures.

The target of one data set is Abl (Homo sapiens, UniProt P00519). The data set can be described thus: Kinase spectrum assay (ADP-Glo). Particulars: remaining enzyme activity at 1 μm compound. Background: ADP-Glo turns the ADP formed in a reaction into a luminescent signal.
The target in another data set is SRC (Homo sapiens, UniProt P12931). As to the kind of experiment: Kinase spectrum assay (ADP-Glo). The settings on record: remaining enzyme activity at 1 μm compound.
Another data set addresses TRKA (Homo sapiens, UniProt P04629). The data set can be described thus: Kinase spectrum assay (ADP-Glo). The settings on record: remaining enzyme activity at 1 μm compound.
A further data set has as its target JAK3 (Homo sapiens, UniProt P52333). As to the kind of experiment: Kinase spectrum assay (ADP-Glo). Particulars: remaining enzyme activity at 1 μm compound.
The target of another data set is NIK (Homo sapiens, UniProt Q99558). As to the kind of experiment: Kinase spectrum assay (ADP-Glo). Particulars: remaining enzyme activity at 1 μm compound.
The target of the next data set is ROCK1 (Homo sapiens, UniProt Q13464). The data set can be described thus: Kinase spectrum assay (ADP-Glo). The settings on record: remaining enzyme activity at 1 μm compound.
The target of a further data set is PDK1 (Homo sapiens, UniProt O15530). The data set can be described thus: Kinase spectrum assay (ADP-Glo). The settings on record: remaining enzyme activity at 1 μm compound.
In a further data set the target is CAMK2α (Homo sapiens, UniProt Q9UQM7). The data set can be described thus: Kinase spectrum assay (ADP-Glo). The settings on record: remaining enzyme activity at 1 μm compound.
For a further data set, the target named is CLK3 (Homo sapiens, UniProt P49761). The data set can be described thus: Kinase spectrum assay (ADP-Glo). Particulars: remaining enzyme activity at 1 μm compound.
A further data set relates to other protein kinases. As to the kind of experiment: Kinase spectrum assay (ADP-Glo), text summary for kinases other than EGFR. Particulars: all panel kinases other than EGFR, at 1.0 μm compound.

CLK3, sequence (P49761 whole entry): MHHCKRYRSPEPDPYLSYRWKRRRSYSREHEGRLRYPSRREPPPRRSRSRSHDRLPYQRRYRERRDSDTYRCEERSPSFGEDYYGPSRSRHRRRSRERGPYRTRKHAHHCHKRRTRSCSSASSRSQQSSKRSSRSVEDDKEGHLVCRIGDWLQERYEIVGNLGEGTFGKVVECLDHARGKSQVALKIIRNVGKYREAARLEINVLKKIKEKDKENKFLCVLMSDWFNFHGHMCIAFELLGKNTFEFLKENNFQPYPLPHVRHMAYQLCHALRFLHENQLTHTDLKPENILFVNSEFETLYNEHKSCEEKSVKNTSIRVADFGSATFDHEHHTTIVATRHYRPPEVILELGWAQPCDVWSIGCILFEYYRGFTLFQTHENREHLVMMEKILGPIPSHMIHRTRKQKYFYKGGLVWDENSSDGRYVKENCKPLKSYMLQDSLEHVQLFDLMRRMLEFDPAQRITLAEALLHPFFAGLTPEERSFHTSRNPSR
Abl, sequence (P00519 whole entry): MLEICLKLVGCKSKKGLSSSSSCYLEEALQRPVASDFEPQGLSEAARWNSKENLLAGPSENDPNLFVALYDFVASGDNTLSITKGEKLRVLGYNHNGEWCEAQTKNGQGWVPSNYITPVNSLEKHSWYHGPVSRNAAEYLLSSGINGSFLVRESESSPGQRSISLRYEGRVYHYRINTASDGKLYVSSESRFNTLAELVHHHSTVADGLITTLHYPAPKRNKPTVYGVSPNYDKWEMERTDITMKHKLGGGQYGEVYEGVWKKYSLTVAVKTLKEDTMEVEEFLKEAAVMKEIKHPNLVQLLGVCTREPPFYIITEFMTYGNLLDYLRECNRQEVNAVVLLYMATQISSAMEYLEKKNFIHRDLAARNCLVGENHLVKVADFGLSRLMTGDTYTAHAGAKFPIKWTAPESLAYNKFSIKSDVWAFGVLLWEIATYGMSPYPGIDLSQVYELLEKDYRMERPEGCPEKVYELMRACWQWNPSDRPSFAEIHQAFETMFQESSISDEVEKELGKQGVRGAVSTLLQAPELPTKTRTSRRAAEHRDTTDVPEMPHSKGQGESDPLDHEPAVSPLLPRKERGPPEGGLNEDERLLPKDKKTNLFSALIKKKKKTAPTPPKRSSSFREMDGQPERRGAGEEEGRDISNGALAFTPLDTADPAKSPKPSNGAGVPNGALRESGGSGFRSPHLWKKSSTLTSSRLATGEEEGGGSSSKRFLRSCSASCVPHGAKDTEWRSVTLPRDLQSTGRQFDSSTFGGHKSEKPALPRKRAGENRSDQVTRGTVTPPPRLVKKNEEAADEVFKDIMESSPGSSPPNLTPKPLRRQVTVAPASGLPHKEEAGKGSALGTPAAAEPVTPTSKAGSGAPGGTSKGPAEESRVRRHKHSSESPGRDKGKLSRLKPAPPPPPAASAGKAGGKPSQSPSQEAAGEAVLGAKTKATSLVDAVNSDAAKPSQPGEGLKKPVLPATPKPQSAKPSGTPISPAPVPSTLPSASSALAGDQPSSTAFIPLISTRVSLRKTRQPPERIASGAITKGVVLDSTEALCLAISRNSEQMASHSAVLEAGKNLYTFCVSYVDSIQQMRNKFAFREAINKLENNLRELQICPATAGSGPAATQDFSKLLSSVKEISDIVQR
ROCK1, sequence (Q13464 whole entry): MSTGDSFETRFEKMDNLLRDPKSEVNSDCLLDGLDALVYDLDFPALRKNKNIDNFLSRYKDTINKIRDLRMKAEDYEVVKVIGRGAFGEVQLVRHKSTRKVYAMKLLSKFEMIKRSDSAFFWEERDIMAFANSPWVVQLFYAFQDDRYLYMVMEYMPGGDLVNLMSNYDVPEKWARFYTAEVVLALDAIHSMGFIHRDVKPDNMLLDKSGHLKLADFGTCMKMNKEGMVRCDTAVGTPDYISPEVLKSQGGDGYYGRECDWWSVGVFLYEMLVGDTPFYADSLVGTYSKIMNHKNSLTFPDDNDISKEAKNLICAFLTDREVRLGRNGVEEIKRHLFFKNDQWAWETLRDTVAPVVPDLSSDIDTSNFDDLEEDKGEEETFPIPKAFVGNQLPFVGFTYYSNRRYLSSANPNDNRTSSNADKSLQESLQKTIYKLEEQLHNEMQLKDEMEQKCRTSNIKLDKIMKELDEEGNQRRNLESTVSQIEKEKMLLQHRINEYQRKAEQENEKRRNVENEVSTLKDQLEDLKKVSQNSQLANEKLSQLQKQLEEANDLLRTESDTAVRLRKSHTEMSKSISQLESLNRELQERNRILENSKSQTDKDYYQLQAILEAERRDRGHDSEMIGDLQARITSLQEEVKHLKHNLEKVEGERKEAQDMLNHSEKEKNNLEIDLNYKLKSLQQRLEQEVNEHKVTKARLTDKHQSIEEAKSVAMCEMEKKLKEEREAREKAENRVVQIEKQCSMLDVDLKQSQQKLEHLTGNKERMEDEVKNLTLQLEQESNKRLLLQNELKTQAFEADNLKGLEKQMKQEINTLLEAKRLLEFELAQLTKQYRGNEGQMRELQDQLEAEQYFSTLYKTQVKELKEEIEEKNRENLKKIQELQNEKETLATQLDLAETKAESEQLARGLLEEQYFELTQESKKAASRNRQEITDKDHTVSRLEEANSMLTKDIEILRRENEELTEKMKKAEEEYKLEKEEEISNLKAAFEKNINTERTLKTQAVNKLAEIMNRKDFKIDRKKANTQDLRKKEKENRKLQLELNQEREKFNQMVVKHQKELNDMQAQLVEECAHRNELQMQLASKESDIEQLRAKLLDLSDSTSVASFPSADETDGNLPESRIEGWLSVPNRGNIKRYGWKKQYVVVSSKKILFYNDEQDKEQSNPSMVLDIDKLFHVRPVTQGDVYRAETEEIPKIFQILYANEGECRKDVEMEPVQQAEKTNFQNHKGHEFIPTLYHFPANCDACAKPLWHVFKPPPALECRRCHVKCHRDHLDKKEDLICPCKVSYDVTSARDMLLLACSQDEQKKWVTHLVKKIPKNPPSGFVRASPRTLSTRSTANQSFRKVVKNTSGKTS
TRKA, sequence (P04629 33-796): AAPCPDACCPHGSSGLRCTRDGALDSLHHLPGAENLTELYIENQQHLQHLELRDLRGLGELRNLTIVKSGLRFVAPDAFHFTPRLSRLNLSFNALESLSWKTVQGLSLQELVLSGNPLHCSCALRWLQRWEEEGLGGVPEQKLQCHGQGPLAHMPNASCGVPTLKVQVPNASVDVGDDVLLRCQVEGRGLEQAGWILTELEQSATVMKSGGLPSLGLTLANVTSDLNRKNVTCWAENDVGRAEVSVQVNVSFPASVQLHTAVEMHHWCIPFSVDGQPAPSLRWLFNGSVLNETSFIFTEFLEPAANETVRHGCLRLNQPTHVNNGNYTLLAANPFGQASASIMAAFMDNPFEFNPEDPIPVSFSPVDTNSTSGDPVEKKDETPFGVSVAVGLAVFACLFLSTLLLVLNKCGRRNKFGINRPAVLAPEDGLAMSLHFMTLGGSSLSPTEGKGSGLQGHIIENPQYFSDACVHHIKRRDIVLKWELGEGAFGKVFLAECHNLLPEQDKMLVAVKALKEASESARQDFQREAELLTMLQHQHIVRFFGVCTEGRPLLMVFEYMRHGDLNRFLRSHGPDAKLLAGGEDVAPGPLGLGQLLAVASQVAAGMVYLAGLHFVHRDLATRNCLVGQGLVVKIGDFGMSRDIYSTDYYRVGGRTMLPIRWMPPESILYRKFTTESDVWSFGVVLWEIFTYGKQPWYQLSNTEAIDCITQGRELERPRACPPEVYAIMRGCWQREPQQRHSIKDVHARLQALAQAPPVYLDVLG
SRC, sequence (P12931 whole entry): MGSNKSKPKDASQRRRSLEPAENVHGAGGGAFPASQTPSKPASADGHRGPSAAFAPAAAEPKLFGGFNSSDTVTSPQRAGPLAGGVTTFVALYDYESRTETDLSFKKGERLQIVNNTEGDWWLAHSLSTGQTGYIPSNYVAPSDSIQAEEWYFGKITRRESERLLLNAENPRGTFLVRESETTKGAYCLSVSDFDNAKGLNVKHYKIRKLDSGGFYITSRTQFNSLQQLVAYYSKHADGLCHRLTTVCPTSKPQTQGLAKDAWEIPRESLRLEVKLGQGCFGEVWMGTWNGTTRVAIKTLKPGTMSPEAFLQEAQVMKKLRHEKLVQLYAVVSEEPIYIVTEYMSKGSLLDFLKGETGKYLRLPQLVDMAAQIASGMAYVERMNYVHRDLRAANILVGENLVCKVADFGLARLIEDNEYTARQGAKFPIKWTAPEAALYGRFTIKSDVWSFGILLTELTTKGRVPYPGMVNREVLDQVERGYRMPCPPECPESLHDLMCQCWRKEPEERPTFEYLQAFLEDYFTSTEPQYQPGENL
CAMK2α, sequence (Q9UQM7 whole entry): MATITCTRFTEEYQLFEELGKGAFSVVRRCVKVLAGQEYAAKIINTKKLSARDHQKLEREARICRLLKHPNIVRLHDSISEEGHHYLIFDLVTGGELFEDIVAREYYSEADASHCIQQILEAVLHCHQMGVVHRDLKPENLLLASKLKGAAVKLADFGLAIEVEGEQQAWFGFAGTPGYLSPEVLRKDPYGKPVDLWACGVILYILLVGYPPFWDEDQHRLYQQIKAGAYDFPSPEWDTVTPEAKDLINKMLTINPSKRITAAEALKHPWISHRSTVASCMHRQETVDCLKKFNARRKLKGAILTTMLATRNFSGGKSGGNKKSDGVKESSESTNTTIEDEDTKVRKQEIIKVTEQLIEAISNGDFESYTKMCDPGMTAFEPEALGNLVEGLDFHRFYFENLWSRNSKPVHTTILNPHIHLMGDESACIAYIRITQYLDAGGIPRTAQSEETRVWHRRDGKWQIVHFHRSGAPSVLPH
Experimental for Abl: (§1) The above-prepared systems were sealed and incubated at room temperature for 2 h, and 5 μl of ADP-GLO was added to terminate the kinase reaction. Then, the culture plate was sealed and incubated in a thermostatic oscillator for 40 min to fully consume the remaining ATP. The luciferase/luciferin reaction was adopted to determine the newly generated ATP level.
Experimental for CAMK2α: (§2) The ADP-Glo™ kinase detection kit is a luminescence kinase detection approach that detects the amount of ADP produced by the kinase reaction. After ADP is converted into ATP, ATP can be used as the substrate of the luciferase-catalyzed reaction to generate an optical signal, which is positively correlated with kinase activity. […] The above-prepared systems were sealed and incubated at room temperature for 2 h, and 5 μl of ADP-GLO was added to terminate the kinase reaction. Then, the culture plate was sealed and incubated in a thermostatic oscillator for 40 min to fully consume the remaining ATP. The luciferase/luciferin reaction was adopted to determine the newly generated ATP level.
Experimental for CLK3: as §2
Experimental for JAK3: as §2
Experimental for NIK: as §2
Experimental for SRC: as §2
Experimental for TRKA: as §2
Experimental for other protein kinases: as §1

What is called melting point is the temperature of the solid-liquid transition. As for `O=C(Nc1ccc(Cl)c(C(F)(F)F)c1)Nc1ccc2ncnc(Nc3cccc(Br)c3)c2c1` [Compound 7i], the melting point was 268 to 268.9 °C. Further, the “Enzyme activity % Abl” value at Abl came to 94.51 ± 0.41%. The “Enzyme activity % SRC” value at SRC was determined as 72.10 ± 1.83%. In addition, on TRKA, the “Enzyme activity % TRKA” value was 83.52 ± 3.13%. For the same compound, at JAK3, the “Enzyme activity % JAK3” value came to 82.49 ± 1.82%. Moreover, at NIK, the “Enzyme activity % NIK” value amounted to 76.97 ± 5.84%. The “Enzyme activity % ROCK1” value on ROCK1 amounted to 78.70 ± 4.00%. Also, on PDK1, the “Enzyme activity % PDK1” value is on record as 74.18 ± 0.62%. Further, the “Enzyme activity % CAMK2α” value at CAMK2α is recorded as 72.67 ± 2.92%. Further, on CLK3, the “Enzyme activity % CLK3” value is 86.80 ± 1.90%. Also, the “enzyme activity of the other protein kinases” value in the data set with other protein kinases is more than 50%.
